Test results as given in patent US20180318291A1, “USE OF AMINOTHIAZOLE MYD88 SPECIFIC INHIBITOR TJM2010-5” (WUHAN INNAMUNE PHARMACEUTICAL INC. LTD., priority 2015, published 2018).

Assays:
[1] = system: lymphocyte subpopulation in receptor spleen; test: lymphocyte subpopulation in receptor spleen by flow cytometry; format: in vivo, mice; details: FIG. 5
Description: In vitro experiment: conduct analysis on lymphocyte subpopulation in receptor spleen receiving stimulation of antigen (homogenic, allogeneic), and flow cytometer detection on CD4+CD25+Foxp3+T cell ratio in receptor receiving TJM2010-5 treatment.
1. Take the receptor spleen of different groups (homogenic, allogenic antigenic stimulation), and grind them to separate lymphocyte;
2. Add the IFN-γ labeled by flow antibody APC and IL-17 labeled by APC, CD25 labeled by APC and Foxp3 labeled by PE.
3. Analyze the lymphocyte subpopulation in receptor spleen of various groups, and the CD4+CD25+Foxp3+T cell ratio in receptor receiving TJM2010-5 treatment with flow cytometry.

C57bl/6 mice kidney IRI = test: renal ischemia reperfusion injury in mice; format: in vivo
Experimental: 1. Groups: General C57bl/6 group (Control), CMC vehicle group, MYD88KO group, TJ-M2010 group, the 8 mice in each group will be provided with treatment of ischemia reperfusion: narcotize, block the left kidney with vascular clamp, and place them in incubator of 31 C° for 80 min; after that, open it and remove the right kidney, and then close the abdomen. Collect blood 24 hours later to conduct BUN, Cr detection.
2. For TJM2010-5 group and CMC group, provide intraperitoneal injection of TJ-M2010-5 dissolved in 0.5% CMC of 150 mg/kg/d on the day before and the day of operation; for CMC group: inject 0.5% CMC solution of 200 μl.
3. Observe the survival time of mice, and make the survival curve. Send the blood specimen to the pathology department for detection of BUN, Cr.

T cells = test: activation of T cells (FIG. 3a); format: cell-based
[2] = system: heart of Balb/c mice transplanted to C57bl/6 mice; test: mice heart transplantation model (graft survival); format: in vivo; details: Balb/c heart to C57bl/6; 150 mg/kg intraperitoneal day 0 to day 6; survive up to 100 days
Description: 1) Application of TJM2010-5 in Mice Heart Transplantation Model
Four groups are set in the experiment, which are: control group (conducting heart transplantation without any treatment), CMC group (vehicle control group), TJM2010-5 treatment group (effect detection group) and ciclosporinA (CsA) control group. The specific treatment methods as follows:
Control group: Take and transplant the heart of Balb/c mice to the abdominal cavity of C57bl/6 mice, and no special treatment is provided after operation;
CMC control group: Take and transplant the heart of Balb/c mice to the abdominal cavity of C57bl/6 mice, and provide intraperitoneal injection of sodium carboxymethyl cellulose (0.5% CMC) solution without TJM2010-5 on day 0 to day 6 after the heart transplantation, and the dose is 200 μl.
TJM2010-5 treatment group: Take and transplant the heart of Balb/c mice to the abdominal cavity of C57bl/6 mice, and provide intraperitoneal injection of TJM2010-5 dissolved in CMC on day 0 to day 6 after the heart transplantation, and the dose is 150 mg/kg.
CsA treatment group: Take and transplant the heart of Balb/c mice to the abdominal cavity of C57bl/6 mice, and provide intraperitoneal injection of CsA on day 0 to day 6 after the heart transplantation, and the dose is 15 mg/kg/day. […]

Balb/c mice = test: AOM/DSS chronic colitis and colitis-associated colorectal cancer (CAC) model; format: in vivo
Experimental: Construct the chronic colitis and colitis-associated colorectal cancer (CAC) model: apply intraperitoneal injection of 10 mg/Kg azoxymethane (AOM) (Sigma-Aldrich Chemical) to 40Balb/c mice, and start to execute three cycles of feeding of drinking water containing 2.5% of dextran sodium sulfate (DSS) (MP Biomedicals) 7 days later, and each cycle consists one week of feeding DSS water and two weeks of feeding common fresh water. Then, observe them in the following 10 weeks. […] 100% of mice in this group have colorectal cancer.
TJM2010-5 treatment group: Provide intragastric administration of TJM2010-5 of 50 mg/kg to 20 Balb/c mice in two days before providing the treatment mentioned above, and observe them in ten weeks.
Mechanism study: Take the specimen of serum, colon, and spleen etc. from 4 mice in each group 2 weeks and 7 weeks later to detect the infiltration of IRAK4 and inflammatory cytokines, macrophage and Gr-1^highCD11b^high MDSC, and the proportion of LPMCs (lamina propria mononuclearcells) F4/80^+CD11b^+ macrophage etc.
The experimental procedure is the same with that of the experiment on effect of TJM2010-5 in preventing and treating colitis and colorectal cancer: Apply intragastric administration of TJM2010-1, TJM2010-2, TJM2010-3, TJM2010-4, TJM2010-5 of 50 mg/kg to 20 Balb/c mice in each group of totally 6 groups, and then, observe them in the following 10 weeks. The mice with colitis and colorectal cancer in the group corresponding to TJM2010-5 and TJM2010-1, TJM2010-2, TJM2010-3, TJM2010-4, TJM2010-5 accounts 0%, 71.52%, 42.28%, 60.19%, 81.34% respectively; 2. TJM2010-5 can 100% prevent and cure chronic colitis and prevent the colorectal cancer incurred by chronic colitis. […] Other aminothiazole compound has no or little such curative effect.

O=C(CCN1CCN(Cc2ccccc2)CC1)Nc1nc(-c2ccccc2)cs1 [TJM2010-5, 3-(4-benzylpiperazin-1-yl)-N-(4-phenylthiazol-2-yl) propanamide]
IFN-γ vs CMC control group ([1]; receptor spleen lymphocytes): significantly lower than that of CMC control group
IL-17 vs CMC control group ([1]; receptor spleen lymphocytes): significantly lower than that of CMC control group
CD4+CD25+Foxp3+T cell ratio in receptor ([1]; receptor spleen): up-regulated significantly
survival rate after mice kidney IRI (C57bl/6 mice kidney IRI; 150 mg/kg/d intraperitoneal day before and day of operation, FIG. 6): significantly improve
protection of kidney functions (BUN, Cr) (C57bl/6 mice kidney IRI; 150 mg/kg/d intraperitoneal, blood 24 hours later, FIG. 7): better protection effect
activation of T cells (T cells): dose-dependently reduce
heart allograft surviving up to 100 days [2]: 80%
colitis finding (Balb/c mice; 50 mg/kg intragastric): No apparent colitis
mice with colitis and colorectal cancer (Balb/c mice; 50 mg/kg intragastric, 20 Balb/c mice per group, observed 10 weeks): 0%
weights vs untreated group (Balb/c mice; 50 mg/kg intragastric, FIG. 12A): obviously higher than that of untreated group
survival rate vs control group (Balb/c mice; 50 mg/kg intragastric, FIG. 12B): obviously higher than that of control group
mice having colitis and colorectal cancer (Balb/c mice; FIG. 12C): no mice
activation of IRAK4 (Balb/c mice; FIG. 13A): inhibit
p-IRAK4 (Balb/c mice; FIG. 13A): reduce
activation of NF-κB p65 (Balb/c mice; FIG. 13B): inhibit
generation of G-CSF vs control group (Balb/c mice; FIG. 13C): obviously lower than those of control group
generation of IL-6 vs control group (Balb/c mice; FIG. 13C): obviously lower than those of control group
generation of MIP-1β vs control group (Balb/c mice; FIG. 13C): obviously lower than those of control group
generation of TGF-β1 vs control group (Balb/c mice; FIG. 13C): obviously lower than those of control group
generation of TNF-α vs control group (Balb/c mice; FIG. 13C): obviously lower than those of control group
level of IL-6 mRNA vs control group (Balb/c mice; FIG. 13D): obviously lower than those of control group
level of TGF-β1 mRNA vs control group (Balb/c mice; FIG. 13D): obviously lower than those of control group
infiltration of macrophage (Balb/c mice; FIG. 14): reduce
F4/80+CD11b+ tumor-associated macrophage in LPMCs (Balb/c mice; FIG. 14B): reduces
infiltration of Gr-1highCD11bhigh MDSC (myeloid suppressor cells) (Balb/c mice; FIG. 14C): reduce
expression of IL-6 (Balb/c mice; FIG. 14D): reduce
prevention and cure of chronic colitis and prevention of colorectal cancer (Balb/c mice; intragastric): 100%
